Results taken from ChEMBL document CHEMBL1201862, “PubChem BioAssay data set” (2004).
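In this assay, cells in 96-well plates receive the compound at five concentrations for 48 hours. Endpoints are linearly interpolated between the surrounding concentrations. GI50: concentration for 50% inhibition of growth.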 Activity calls are given as the source filed them. No stated cut-off is given here; in the data, active = GI50 up to about 1.1 µM and inactive = higher.

Assays:
Assay in all cases: growth of human tumour cells (NCI), 48 h
HOP-18 = test system: HOP-18
HL-60 = test system: HL-60
RPMI-8226 = test system: RPMI-8226
Malme-3M = test system: Malme-3M
SK-MEL-28 = test system: SK-MEL-28
K562 = test system: K562
SN12C = test system: SN12C
KM12 = test system: KM12
DLD-1 = test system: DLD-1
MOLT-4 = test system: MOLT-4
M19-MEL = test system: M19-MEL
U-251 = test system: U-251
LOX IMVI = test system: LOX IMVI
SNB-19 = test system: SNB-19
OVCAR-8 = test system: OVCAR-8
HCT-116 = test system: HCT-116
LXFL 529 = test system: LXFL 529
ACHN = test system: ACHN
HT-29 = test system: HT-29
EKVX = test system: EKVX
786-0 = test system: 786-0
M14 = test system: M14
TK-10 = test system: TK-10
DMS-273 = test system: DMS-273
UO-31 = test system: UO-31
HCT-15 = test system: HCT-15
OVCAR-5 = test system: OVCAR-5
NCI-H226 = test system: NCI-H226
IGROV-1 = test system: IGROV-1
NCI-H23 = test system: NCI-H23
HOP-62 = test system: HOP-62
COLO 205 = test system: COLO 205
UACC-62 = test system: UACC-62
KM-20L2 = test system: KM-20L2
SK-MEL-5 = test system: SK-MEL-5
SK-MEL-2 = test system: SK-MEL-2
A498 = test system: A498
HCC 2998 = test system: HCC 2998
UACC-257 = test system: UACC-257
A549 = test system: A549
CCRF-CEM = test system: CCRF-CEM
CAKI-1 = test system: CAKI-1
SNB-78 = test system: SNB-78
SK-OV-3 = test system: SK-OV-3
HOP-92 = test system: HOP-92
SF-268 = test system: SF-268
OVCAR-3 = test system: OVCAR-3
OVCAR-4 = test system: OVCAR-4
NCI-H522 = test system: NCI-H522
SW-620 = test system: SW-620
SF-295 = test system: SF-295
NCI-H460 = test system: NCI-H460
RXF 393 = test system: RXF 393
DMS-114 = test system: DMS-114
SF-539 = test system: SF-539
SNB-75 = test system: SNB-75
XF498 = test system: XF498
SR = test system: SR

COc1cc([C@@H]2c3cc4c(cc3[C@@H](NC(=O)c3cccc(F)c3)C3COC(=O)[C@@H]32)OCO4)cc(OC)c1O (stereo partly specified) was tested, and the GI50 (HOP-18) was > 100 µM (inactive), the GI50 (HL-60) was 0.111 µM (active) and the GI50 (RPMI-8226) was 0.466 µM (active). For the same compound, the GI50 (Malme-3M) was 1.29 µM (inactive), the GI50 (SK-MEL-28) was 2.94 µM (inactive) and the GI50 (K562) was 1.61 µM (inactive). For the same compound, the GI50 (SN12C) was 0.314 µM (active), the GI50 (KM12) was 1.76 µM (inactive) and the GI50 (DLD-1) was 2.32 µM (inactive). For the same compound, the GI50 (MOLT-4) was < 0.01 µM (active), the GI50 (M19-MEL) was 3.22 µM (inactive) and the GI50 (U-251) was 0.109 µM (active). The GI50 (LOX IMVI) was 0.698 µM (active), the GI50 (SNB-19) was 0.664 µM (active) and the GI50 (OVCAR-8) was 1.76 µM (inactive). The GI50 (HCT-116) was 1.76 µM (inactive), the GI50 (LXFL 529) was 5.5 µM (inactive) and the GI50 (ACHN) was 0.125 µM (active). For the same compound, the GI50 (HT-29) was 2.05 µM (inactive), the GI50 (EKVX) was 2.1 µM (inactive) and the GI50 (786-0) was 0.441 µM (active). For the same compound, the GI50 (M14) was 1.26 µM (inactive), the GI50 (TK-10) was 3.35 µM (inactive) and the GI50 (DMS-273) was 0.153 µM (active). For the same compound, the GI50 (UO-31) was 2.99 µM (inactive), the GI50 (HCT-15) was 1.45 µM and the GI50 (OVCAR-5) was 2.21 µM (inactive). The GI50 (NCI-H226) was 0.207 µM (active), the GI50 (IGROV-1) was 1.19 µM (inactive) and the GI50 (NCI-H23) was 0.522 µM (active). For the same compound, the GI50 (HOP-62) was 0.195 µM (active), the GI50 (COLO 205) was 3.52 µM (inactive) and the GI50 (UACC-62) was 0.385 µM (active). For the same compound, the GI50 (KM-20L2) was 1.68 µM (inactive), the GI50 (SK-MEL-5) was 1.14 µM (inactive) and the GI50 (SK-MEL-2) was 4.46 µM (inactive). The GI50 (A498) was 1.27 µM (inactive), the GI50 (HCC 2998) was 2.66 µM (inactive) and the GI50 (UACC-257) was 7.19 µM (inactive). The GI50 (A549) was 0.0327 µM (active), the GI50 (CCRF-CEM) was 0.111 µM (active) and the GI50 (CAKI-1) was 0.646 µM (active). For the same compound, the GI50 (SNB-78) was 15.5 µM (inactive), the GI50 (SK-OV-3) was 1.26 µM (inactive) and the GI50 (HOP-92) was 2.74 µM (inactive). For the same compound, the GI50 (SF-268) was 1.61 µM (inactive), the GI50 (OVCAR-3) was 3.6 µM (inactive) and the GI50 (OVCAR-4) was 38.5 µM (inactive). The GI50 (NCI-H522) was 1.4 µM (inactive), the GI50 (SW-620) was 0.738 µM (active) and the GI50 (SF-295) was 0.412 µM (active). For the same compound, the GI50 (NCI-H460) was < 0.01 µM (active), the GI50 (RXF 393) was 4.3 µM (inactive) and the GI50 (DMS-114) was 0.607 µM (active). For the same compound, the GI50 (SF-539) was 0.356 µM (active) and the GI50 (SNB-75) was 1.23 µM (inactive).

In the case of CCO/S(=N/S(=O)(=O)c1ccccc1)c1ccccc1[N+](=O)[O-] (stereo unspecified), the GI50 (HOP-18) was > 100 µM (inactive), the GI50 (RPMI-8226) was > 100 µM (inactive) and the GI50 (Malme-3M) was > 100 µM (inactive). For the same compound, the GI50 (SK-MEL-28) was > 100 µM (inactive), the GI50 (K562) was > 100 µM (inactive) and the GI50 (SN12C) was > 100 µM (inactive). For the same compound, the GI50 (KM12) was > 100 µM (inactive), the GI50 (DLD-1) was > 100 µM (inactive) and the GI50 (MOLT-4) was > 100 µM (inactive). For the same compound, the GI50 (M19-MEL) was > 100 µM (inactive), the GI50 (U-251) was > 100 µM (inactive) and the GI50 (LOX IMVI) was > 100 µM (inactive). The GI50 (SNB-19) was > 100 µM (inactive), the GI50 (OVCAR-8) was > 100 µM (inactive) and the GI50 (LXFL 529) was > 100 µM (inactive). The GI50 (HT-29) was > 100 µM (inactive), the GI50 (EKVX) was > 100 µM (inactive) and the GI50 (786-0) was > 100 µM (inactive). The GI50 (M14) was > 100 µM (inactive), the GI50 (DMS-273) was > 100 µM (inactive) and the GI50 (UO-31) was > 100 µM (inactive). For the same compound, the GI50 (XF498) was > 100 µM (inactive), the GI50 (HCT-15) was over 100 µM and the GI50 (OVCAR-5) was > 100 µM (inactive). The GI50 (NCI-H226) was > 100 µM (inactive), the GI50 (IGROV-1) was > 100 µM (inactive) and the GI50 (NCI-H23) was > 100 µM (inactive). For the same compound, the GI50 (HOP-62) was > 100 µM (inactive), the GI50 (COLO 205) was > 100 µM (inactive) and the GI50 (UACC-62) was > 100 µM (inactive). For the same compound, the GI50 (KM-20L2) was > 100 µM (inactive), the GI50 (SK-MEL-5) was > 100 µM (inactive) and the GI50 (SK-MEL-2) was > 100 µM (inactive). For the same compound, the GI50 (HCC 2998) was > 100 µM (inactive), the GI50 (UACC-257) was > 100 µM (inactive) and the GI50 (A549) was > 100 µM (inactive). For the same compound, the GI50 (CCRF-CEM) was 80.2 µM (inactive), the GI50 (CAKI-1) was > 100 µM (inactive) and the GI50 (SK-OV-3) was > 100 µM (inactive). For the same compound, the GI50 (SF-268) was > 100 µM (inactive), the GI50 (OVCAR-3) was > 100 µM (inactive) and the GI50 (OVCAR-4) was 44.1 µM (inactive). For the same compound, the GI50 (NCI-H522) was > 100 µM (inactive), the GI50 (SW-620) was > 100 µM (inactive) and the GI50 (SF-295) was > 100 µM (inactive). The GI50 (NCI-H460) was > 100 µM (inactive), the GI50 (DMS-114) was > 100 µM (inactive) and the GI50 (SR) was > 100 µM (inactive). For the same compound, the GI50 (SF-539) was > 100 µM (inactive) and the GI50 (SNB-75) was > 100 µM (inactive).
